Experimental data taken from EP4703361A1, “PYRIDAZINONE TRPC4/5 INHIBITOR AND USE THEREOF” (Shanghai Institute of Materia Medica, Chinese Academy of …, priority 2023, dated 2024).

What was measured:
[1] = Drug tissue distribution after oral administration to mice; conditions: for Drug concentration Brain / Drug concentration Colon / Drug concentration Heart / Drug concentration Kidney / Drug concentration Liver / Drug concentration Lung / Drug concentration Muscle / Drug concentration Plasma / Drug concentration Spleen: mice, 10 mg/kg oral
Method: 250 mg of CMC-Na was weighted accurately, dissolved in 50 mL of mili-Q water, and sonicated for 1 h to prepare a 0.5% (m/v) CMC-Na solution for later use. […] After vortexing to dissolve, 140 µL of Tween 80 was added and mixed by vortex. Then 6.72 mL of CMC-Na solution was added and sonicated for 30 min to obtain 7 mL of a 1.0 mg/mL solution for use.
Mice were able to eat and drink freely and randomly divided into groups, with 3 mice in each group, and each mouse was gavaged with a dosage volume of 10 mL/kg. Blood was collected from the orbital venous plexus 1 and 4 hours after administration. Approximately 500 µL of mouse blood was placed in an EDTA-K2 anticoagulant tube. At the same time points, the brain, heart, lung, liver, kidney, spleen, colon, and muscle tissues of the mice were collected. […] Mouse brain, heart, lung, liver, kidney, spleen, colon, and muscle tissues were ground into tissue homogenate using a grinder with physiological saline equal to 5 times the weight of the tissue. The homogenate was centrifuged at 3,000 rpm for 10 min, and the supernatant was stored at -80°C for later use.
198 µL of plasma sample was placed in a centrifuge tube, 2 µl of internal standard solution was added, then 400 µL of acetonitrile was added, mixed by vortex for 1 min, and centrifuged at 13,000 rpm for 6 min. All the supernatant was taken, evaporated at room temperature for two days, re-dissolved in 200 µL of acetonitrile solvent, filtered with a 0.22 µm filter membrane and then injected for testing. 198 µL of the tissue homogenate supernatant sample was placed in a centrifuge tube, 2 µl of internal standard solution was added, then 400 µL of acetonitrile was added, mixed by vortex for 1 min, and centrifuged at 13,000 rpm for 6 min. All the supernatant was taken, evaporated at room temperature for two days, re-dissolved in 200 µL of acetonitrile solvent, filtered with a 0.22 µm filter membrane and then injected for testing.
Chromatographic column: Ultimate XB-C18 3 µM 2.1*100 mm; flow rate: 0.3 mL/min; column temperature: 30 °C; injection volume: 5 µL; mobile phase: A (pure water, containing 0.1% by volume formic acid), B (acetonitrile). The mass spectrometry ion source was an electrospray ionization (ESI) ionization source with a source temperature of 300°C.

hTRPC5 = target: T1, hTRPC5 (Homo sapiens, UniProt Q9UL62); experiment: TRPC5 inhibitory activity assay (FLIPR calcium flux, Fluo-4, agonist Englerin A); assay type: cell-based; conditions: HEK-293 cells expressing hTRPC5; agonist Englerin A 0.3 nM
T1 construct: expressed in transfected cells; host or cells: HEK-293
T1 sequence (Q9UL62 1-973): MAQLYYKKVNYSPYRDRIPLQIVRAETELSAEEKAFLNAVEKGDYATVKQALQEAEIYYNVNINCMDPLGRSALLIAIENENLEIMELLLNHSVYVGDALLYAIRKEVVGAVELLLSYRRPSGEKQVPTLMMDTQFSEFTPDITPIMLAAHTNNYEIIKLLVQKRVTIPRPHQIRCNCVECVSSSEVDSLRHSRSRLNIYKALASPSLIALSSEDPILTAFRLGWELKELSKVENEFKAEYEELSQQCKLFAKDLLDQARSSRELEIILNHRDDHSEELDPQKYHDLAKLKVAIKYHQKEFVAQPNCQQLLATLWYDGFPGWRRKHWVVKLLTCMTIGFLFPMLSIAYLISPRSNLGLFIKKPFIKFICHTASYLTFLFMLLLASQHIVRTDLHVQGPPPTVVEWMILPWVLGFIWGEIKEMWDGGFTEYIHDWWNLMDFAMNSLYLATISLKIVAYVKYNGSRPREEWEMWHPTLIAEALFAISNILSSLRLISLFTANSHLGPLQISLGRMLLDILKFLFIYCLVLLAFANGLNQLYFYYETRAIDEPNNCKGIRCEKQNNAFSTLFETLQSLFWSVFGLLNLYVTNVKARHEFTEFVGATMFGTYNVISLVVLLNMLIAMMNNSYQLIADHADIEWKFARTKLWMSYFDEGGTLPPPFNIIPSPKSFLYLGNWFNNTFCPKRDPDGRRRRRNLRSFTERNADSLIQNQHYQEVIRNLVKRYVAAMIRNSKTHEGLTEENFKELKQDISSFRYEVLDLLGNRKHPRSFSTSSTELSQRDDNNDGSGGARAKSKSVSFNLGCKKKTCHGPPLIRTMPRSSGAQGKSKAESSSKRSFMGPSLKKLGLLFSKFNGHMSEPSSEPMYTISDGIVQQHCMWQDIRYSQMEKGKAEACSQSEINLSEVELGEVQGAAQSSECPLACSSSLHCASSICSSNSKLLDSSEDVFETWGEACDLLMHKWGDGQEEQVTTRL
Method: HEK-293 cells expressing hTRPC4 or hTRPC5 were seeded into polylysine (PDL)-coated, black-bottomed, transparent 96-well plates at 2 × 10^4 cells per well. After 8 h of culture, the culture medium was discarded and 60 µL of 4 µM Fluo-4/AM dye was added. The plates were incubated at 37°C for 60 min and then rinsed five times with calcium flux assay buffer. […] After recording for 60 seconds, solvent control, test compound and positive inhibitor were added, and the signal was collected for another 300 seconds. Then, the agonist Englerin A (EA) (MedChemExpress, Shanghai, China, final concentration of 0.3 nM) was added, and the fluorescence signal was collected for another 600 seconds. The fluorescence signal in the trajectory diagram was expressed as F/F0, wherein F was the fluorescence signal at different time points and F0 was the basic fluorescence signal, that is, the average of the fluorescence signals at the first 10 time points. The dose-effect curve is first established with F/F0 = 1 as the baseline. The area under the curve of the fluorescence intensity change after the addition of EA was calculated. The IC50 value was calculated using the log[Inhibitor] vs. response - Variable slope, combining the area under the curve and the log value of the compound concentration.

[2] = Liver microsome stability test (human); conditions: for MF %: human liver microsomes, metabolic bioavailability; for half-life at 1 µM: human, liver microsomes, pH 7.4
Method: (§1) 0.1M pH 7.4 Tris buffer was prepared and then this buffer was used to prepare a 100 mM MgCl2 solution and a 10 mM coenzyme factor NADPH solution. The test compound was first prepared as a stock solution in DMSO and then diluted to a working concentration with 0.1% (w/v) BSA-PBS solution as needed.
(§2) During the assay, the liver microsome in TRIS buffer (final concentration of 0.33 mg/mL microsome protein), MgCl2 solution (final concentration of 5 mM), test compound solution (final concentration of 1 µM), and NADPH solution (final concentration of 1 mM) were incubated at 37°C. The reaction was terminated by adding methanol at 0, 7, 17, 30, and 60 minutes. The residual concentration of the test compound was determined using LC/MS/MS.
(§3) Calculation of in vivo clearance: Cl = (Clint × Houston × LW)/(1000); [formula]
(§4) Calculation of hepatic clearance: Clhep = (HBF × fu × Cl)/(HBF + (fu×Cl)); [formula]
(§5) Calculation of Metabolic utilization rate: %MF = 100−(Clhep × 100)/(HBF). [formula]
(§6) ke: Slope of the linear regression line (absolute value of slope) when plotting semi-logarithmic graph. The semi-logarithmic plot was made with the semi-logarithm of the remaining percentage of substrate versus reaction time. P: Microsome protein concentration (mg/mL); Houston: Houston factor (45 mg microsome protein/g liver); LW: Liver weight (g); HBF: Hepatic blood flow (mL/min); fu: Unbound fraction (typically fu=1).

[3] = Liver microsome stability test (mouse); conditions: for MF %: mouse liver microsomes, metabolic bioavailability; for half-life at 1 µM: mouse, liver microsomes, pH 7.4
Method: as §1, §2, §3, §4, §5, §6

in vitro [4] = conditions: human, microsomes, pH 7.4
Method: as §1, §2, §3, §4, §5, §6

in vitro [5] = conditions: mouse, microsomes, pH 7.4
Method: as §1, §2, §3, §4, §5, §6

[6] = tested on: DOCA-salt hypertensive nephropathy rats; experiment: DOCA-salt-induced hypertensive nephropathy rat model; assay type: in vivo, SD rats; conditions: oral treatment for 3 weeks, losartan 30 mg/kg once a day
Excerpt: After one week of adaptive feeding, 40 healthy male SD rats (SPF grade, 6 weeks old, weighing 200 g) were randomly divided into cages and fed with normal water. Five rats were selected as the normal group. The other 35 rats were weighed and anesthetized with 6% (w/v) chloral hydrate (200 g/ml, Sinopharm Group Reagent Company) intraperitoneally. The dorsal surgical area was then trimmed and the rats were fixed in a prone position on a surgical board. After strict disinfection, a 2-cm incision was made on the left side of the spine, below the twelfth rib. The muscles were separated, the renal capsule was freed, and the left kidney was exposed. The renal artery and vein were ligated close to the renal hilum, and the left kidney was removed. After clearing congestion, the muscle layer and skin were sutured. After surgery (after waking up from anesthesia), the rats were given an intraperitoneal injection of penicillin sodium (80,000 units intraperitoneal injection, for 3 consecutive days, prepared with normal saline. If 400,000 units of powder were used with 2.5 mL of normal saline, and 0.5 mL was injected per mouse per day). Afterwards, the normal group was given a subcutaneous injection of vegetable oil (commonly corn oil) and fed with tap water; the DOCA-salt modeling group was given a subcutaneous injection of deoxycorticosterone acetate (DOCA, CAS: 56-47-3, Shanghai Aladdin Biochemical Technology) dissolved in vegetable oil once a week, 30 mg/kg each time, and 10 g/L NaCl and 2 g/L KCl were added to the drinking water. The model was established after 4 consecutive weeks of induction.
Four weeks after modeling, the DOCA-salt hypertensive nephropathy rats were divided into four groups according to UACR. The drug was dissolved in 2% (v/v) DMSO + 2% (w/v) Tween 80 + physiological saline system and administered by gavage. […] Normal group: 5 rats, raised normally. Each group had free access to food and water.
After the start of drug administration, rats were placed in metabolic cages to collect 24 hours urine per week. […] Three weeks after administration, serum was collected to check the concentrations of blood creatinine and urea nitrogen. Then, the rats were euthanized under anesthesia, and the renal tissues were obtained. The RNA levels of nephrin and podocin were detected by quantitative RT-PCR.
GraphPad Prism (Ver 6.0) was used for statistical analysis. All data were expressed as mean ± standard error (mean ± SEM). One-way ANOVA was used to analyze the data. Dunnett's multiple test was used to analyze the significance of the differences between the groups. When P < 0.05, the differences between the groups were statistically significant.

[7] = E21 high dose (10 mg/kg morning and evening), Figure 4
[8] = E21 medium dose (5 mg/kg morning and evening), Figure 3

COC(c1ccc(F)cc1Cl)c1cnc2n1CCN(c1cn[nH]c(=O)c1Cl)C2 (racemic) [Example E21, 4-chloro-5-(3-((2-chloro-4-fluorophenyl)(methoxy)methyl)-5,6-dihydroimidazo[1,2-a]pyrazin-7(8H)-yl)pyridazin-3(2H)-one]
drug exposure and distribution in plasma, liver, and kidney ([1]; 1 and 4 hours after oral administration to mice): good
Drug concentration Brain ([1]; 1 h): 52 ng/g
Drug concentration Colon ([1]; 1 h): 824 ng/g
Drug concentration Heart ([1]; 1 h): 191 ng/g
Drug concentration Kidney ([1]; 1 h): 719 ng/g
Drug concentration Liver ([1]; 1 h): 565 ng/g
Drug concentration Lung ([1]; 1 h): 219 ng/g
Drug concentration Muscle ([1]; 1 h): 153 ng/g
Drug concentration Plasma ([1]; 1 h): 1147 ng/mL
Drug concentration Spleen ([1]; 1 h): 531 ng/g
Drug concentration Brain ([1]; 4 h): 28 ng/g
Drug concentration Colon ([1]; 4 h): 133 ng/g
Drug concentration Heart ([1]; 4 h): 26 ng/g
Drug concentration Kidney ([1]; 4 h): 97 ng/g
Drug concentration Liver ([1]; 4 h): 205 ng/g
Drug concentration Lung ([1]; 4 h): 39 ng/g
Drug concentration Muscle ([1]; 4 h): 52 ng/g
Drug concentration Plasma ([1]; 4 h): 250 ng/mL
Drug concentration Spleen ([1]; 4 h): 60 ng/g

[N-]=[N+]=NC(c1ccc(F)cc1C(F)(F)F)c1cnc2n1CCN(c1cn[nH]c(=O)c1Cl)C2 (stereo not shown) [Example E9, 5-(3-(azido(4-fluoro-2-(trifluoromethyl)phenyl)methyl)-5,6-dihydroimidazo[1,2-a]pyrazin-7(8H)-yl)-4-chloropyridazin-3(2H)-one]
IC50 (hTRPC5): 0.0246 µM

COC(c1cc(F)ccc1Cl)c1cnc2n1CCN(c1cn[nH]c(=O)c1Cl)C2 (stereo not shown) [Example E22, 4-chloro-5-(3-((2-chloro-5-fluorophenyl)(methoxy)methyl)-5,6-dihydroimidazo[1,2-a]pyrazin-7(8H)-yl)pyridazin-3(2H)-one]
IC50 (hTRPC5): 0.0601 µM

[2H]C([2H])([2H])OC(c1ccc(F)cc1C)c1cnc2n1CCN(c1cn[nH]c(=O)c1Cl)C2 (stereo not shown) [Example E24, 4-chloro-5-(3-((4-fluoro-2-methylphenyl)(methoxy-d3)methyl)-5,6-dihydroimidazo[1,2-a]pyrazin-7(8H)-yl)pyridazin-3(2H)-one]
MF % [2]: 63.8%
half-life at 1 µM [2]: 3.15 h
MF % [3]: 55.9%
half-life at 1 µM [3]: 0.997 h

C=C(c1cc(F)ccc1Cl)c1cnc2n1CCN(c1cn[nH]c(=O)c1Cl)C2 [Example E27, 4-chloro-5-(3-(1-(2-chloro-5-fluorophenyl)vinyl)-5,6-dihydroimidazo[1,2-a]pyrazin-7(8H)-yl)pyridazin-3(2H)-one]
IC50 (hTRPC5): 0.00528 µM

CC(c1ccc(F)cc1Cl)c1cnc2n1CCN(c1cn[nH]c(=O)c1Cl)C2 (stereo not shown) [Example E28, 4-chloro-5-(3-(1-(2-chloro-4-fluorophenyl)ethyl)-5,6-dihydroimidazo[1,2-a]pyrazin-7(8H)-yl)pyridazin-3(2H)-one]
IC50 (hTRPC5): 0.0183 µM

CC(c1cc(F)ccc1Cl)c1cnc2n1CCN(c1cn[nH]c(=O)c1Cl)C2 (stereo not shown) [Example E29, 4-chloro-5-(3-(1-(2-chloro-5-fluorophenyl)ethyl)-5,6-dihydroimidazo[1,2-a]pyrazin-7(8H)-yl)pyridazin-3(2H)-one]
MF % [2]: 39.6%
half-life at 1 µM [2]: 1.17 h
MF % [3]: 54.4%
half-life at 1 µM [3]: 0.94 h

[N-]=[N+]=NC(c1cc(F)ccc1Cl)c1cnc2n1CCN(c1cn[nH]c(=O)c1Cl)C2 (stereo not shown) [Example E30, 5-(3-(azido(2-chloro-5-fluorophenyl)methyl)-5,6-dihydroimidazo[1,2-a]pyrazin-7(8H)-yl)-4-chloropyridazin-3(2H)-one]
IC50 (hTRPC5): 0.0371 µM

O=C(c1ccc(F)cc1C(F)(F)F)c1nnc2n1CCN(c1cn[nH]c(=O)c1Cl)C2 [Example E41, 4-chloro-5-(3-(4-fluoro-2-(trifluoromethyl)benzoyl)-5,6-dihydro-[1,2,4]triazolo[4,3-a]pyrazin-7(8H)-yl)pyridazin-3(2H)-one]
IC50 (hTRPC5): 0.146 µM

O=c1[nH]ncc(N2CCn3c(Cc4ccc(F)cc4C(F)(F)F)cnc3C2)c1Cl [Example L002]
half-life at 1 µM (in vitro [4]): 1.1 h
half-life at 1 µM (in vitro [5]): 0.645 h
IC50 (hTRPC5): 0.0104 µM

CCCCc1nc(Cl)c(CO)n1Cc1ccc(-c2ccccc2-c2nn[nH]n2)cc1 [losartan]
levels of nephrin (mRNA, kidney) [6, 7]: effectively increase
levels of podocin (mRNA, kidney) [6, 7]: effectively increase
serum creatinine (Scr) [6, 8]: effectively reduce
urea nitrogen (BUN) [6, 8]: no effect
